According to US10822337B2, “TGF-β inhibitorC” (Rigel Pharmaceuticals, Inc., priority 2015, dated 2020):

Columns and labels:
[1] = test system: TGF-β signaling (TGF-β pSMAD, MPC-11); experiment: AlphaScreen SureFire SMAD3 (p-Ser423/425) assay, inhibition of TGF-β signaling; format: cell-based; conditions: Mus musculus, p-SMAD-3 (Ser423/425) in cell lysate after TGF-β stimulation
How it was run: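 Phosphorylation of endogenous SMAD-3 at Ser423/425 was quantified with an AlphaScreen SureFire assay. Cells were exposed to compound for about 10 minutes, stimulated with TGF-β, and lysed in 1× Lysis Buffer. Lysate (5 μL) was combined with Reaction/Activation buffer plus Acceptor beads for 2 hours, then Donor beads for 1½ hours, and read on a plate reader.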

[2] = test system: GDF8 signaling (GDF pSMAD, MPC11); experiment: AlphaScreen SureFire SMAD3 (p-Ser423/425) assay, inhibition of GDF8 signaling; format: cell-based; conditions: Mus musculus, MPC-11, p-SMAD-3 (Ser423/425) in cell lysate after GDF8 stimulation

Compound	IC50 [1]	IC50 [2]
Fc1cc(F)c(-c2nn3c(c2-c2ccc4cn[nH]c4c2)CCC3)cc1F [Compound 113, 6-(2-(2,4,5-Trifluorophenyl)-5,6-dihydro-4H-pyrrolo[1,2-b]pyrazol-3-yl)-1H-indazole]	1.47 µM	0.226 µM
Cn1cnc2ccc(-c3c(-c4cc(F)c(F)cc4F)nn4c3CCC4)cc21 [Compound 114, 1-Methyl-6-(2-(2,4,5-trifluorophenyl)-5,6-dihydro-4H-pyrrolo[1,2-b]pyrazol-3-yl)-1H-benzo[d]imidazole]	0.0876 µM	0.024 µM
Fc1cc(F)c(-c2nn3c(c2-c2ccc4nccn4c2)CCC3)cc1F [Compound 115, 6-(2-(2,4,5-Trifluorophenyl)-5,6-dihydro-4H-pyrrolo[1,2-b]pyrazol-3-yl)imidazo[1,2-a]pyridine]	0.373 µM	0.0662 µM
Fc1cc(F)c(-c2nn3c(c2-c2ccc4ncsc4c2)CCC3)cc1F [Compound 116, 6-(2-(2,4,5-Trifluorophenyl)-5,6-dihydro-4H-pyrrolo[1,2-b]pyrazol-3-yl)benzo[d]thiazole]	0.186 µM	0.0276 µM
Fc1cc(F)c(-c2nn3c(c2-c2ccc4ncccc4c2)CCC3)cc1F [Compound 117, 6-(2-(2,4,5-Trifluorophenyl)-5,6-dihydro-4H-pyrrolo[1,2-b]pyrazol-3-yl)quinoline]	1.49 µM	0.157 µM
Fc1cc(F)c(-c2nn3c(c2-c2ccc4nccnc4c2)CCC3)cc1F [Compound 118, 6-(2-(2,4,5-Trifluorophenyl)-5,6-dihydro-4H-pyrrolo[1,2-b]pyrazol-3-yl)quinoxaline]	0.659 µM	0.0985 µM
Fc1cc(F)c(-c2nn3c(c2-c2ccc4ncnn4c2)CCC3)cc1F [Compound 119, 6-(2-(2,4,5-Trifluorophenyl)-5,6-dihydro-4H-pyrrolo[1,2-b]pyrazol-3-yl)-[1,2,4]triazolo[1,5-a]pyridine]	0.141 µM	0.0309 µM
Clc1ccccc1-c1nn2c(c1-c1ccc3ncsc3c1)CCC2 [Compound 120, 6-(2-(2-Chlorophenyl)-5,6-dihydro-4H-pyrrolo[1,2-b]pyrazol-3-yl)benzo[d]thiazole]	5.56 µM	0.873 µM
Clc1ccccc1-c1nn2c(c1-c1ccc3ncnn3c1)CCC2 [Compound 121, 6-(2-(2-Chlorophenyl)-5,6-dihydro-4H-pyrrolo[1,2-b]pyrazol-3-yl)-[1,2,4]triazolo[1,5-a]pyridine]	0.949 µM	0.341 µM
FC(F)(F)Oc1cccc(-c2nn3c(c2-c2ccc4[nH]ncc4c2)CCC3)c1 [Compound 122, 5-(2-(3-Trifluoromethoxyphenyl)-5,6-dihydro-4H-pyrrolo[1,2-b]pyrazol-3-yl)-1H-indazole]	0.0774 µM	0.0675 µM
FC(F)(F)Oc1cccc(-c2nn3c(c2-c2ccc4cn[nH]c4c2)CCC3)c1 [Compound 123, 6-(2-(3-Trifluoromethoxyphenyl)-5,6-dihydro-4H-pyrrolo[1,2-b]pyrazol-3-yl)-1H-indazole]	0.19 µM	0.0853 µM
FC(F)(F)Oc1cccc(-c2nn3c(c2-c2ccc4nccn4c2)CCC3)c1 [Compound 124, 6-(2-(3-Trifluoromethoxyphenyl)-5,6-dihydro-4H-pyrrolo[1,2-b]pyrazol-3-yl)imidazo[1,2-a]pyridine]	0.0459 µM	0.0537 µM
FC(F)(F)Oc1cccc(-c2nn3c(c2-c2ccc4ncsc4c2)CCC3)c1 [Compound 125, 6-(2-(3-Trifluoromethoxyphenyl)-5,6-dihydro-4H-pyrrolo[1,2-b]pyrazol-3-yl)benzo[d]thiazole]	0.124 µM	0.16 µM
FC(F)(F)Oc1cccc(-c2nn3c(c2-c2ccc4nccnc4c2)CCC3)c1 [Compound 126, 6-(2-(3-Trifluoromethoxyphenyl)-5,6-dihydro-4H-pyrrolo[1,2-b]pyrazol-3-yl)quinoxaline]	0.222 µM	0.155 µM
FC(F)(F)Oc1cccc(-c2nn3c(c2-c2ccc4ncnn4c2)CCC3)c1 [Compound 127, 6-(2-(3-Trifluoromethoxyphenyl)-5,6-dihydro-4H-pyrrolo[1,2-b]pyrazol-3-yl)-[1,2,4]triazolo[1,5-a]pyridine]	0.0708 µM	0.0362 µM
FC(F)(F)Oc1cccc(-c2nn3c(c2-c2ccc4sncc4c2)CCC3)c1 [Compound 128, 5-(2-(3-Trifluoromethoxyphenyl)-5,6-dihydro-4H-pyrrolo[1,2-b]pyrazol-3-yl)benzo[d]isothiazole]	0.677 µM	0.439 µM
Fc1ccc(-c2nn3c(c2-c2ccc4cn[nH]c4c2)CCC3)c(F)c1F [Compound 129, 6-(2-(2,3,4-Trifluorophenyl)-5,6-dihydro-4H-pyrrolo[1,2-b]pyrazol-3-yl)-1H-indazole]	1.64 µM	0.346 µM
Fc1ccc(-c2nn3c(c2-c2ccc4nccn4c2)CCC3)c(F)c1F [Compound 130, 6-(2-(2,3,4-Trifluoropehnyl)-5,6-dihydro-4H-pyrrolo[1,2-b]pyrazol-3-yl)imidazo[1,2-a]pyridine]	1.4 µM	0.319 µM

Compound	IC50 [1]	IC50 [2]
Fc1ccc(-c2nn3c(c2-c2ccc4ncsc4c2)CCC3)c(F)c1F [Compound 131, 6-(2-(2,3,4-Trifluorophenyl)-5,6-dihydro-4H-pyrrolo[1,2-b]pyrazol-3-yl)benzo[d]thiazole]	0.946 µM	0.286 µM
Fc1ccc(-c2nn3c(c2-c2ccc4nccnc4c2)CCC3)c(F)c1F [Compound 132, 6-(2-(2,3,4-Trifluorophenyl)-5,6-dihydro-4H-pyrrolo[1,2-b]pyrazol-3-yl)quinoxaline]	2.33 µM	0.909 µM
Fc1ccc(-c2nn3c(c2-c2ccc4ncnn4c2)CCC3)c(F)c1F [Compound 133, 6-(2-(2,3,4-Trifluorophenyl)-5,6-dihydro-4H-pyrrolo[1,2-b]pyrazol-3-yl)-[1,2,4]triazolo[1,5-a]pyridine]	0.701 µM	0.247 µM
Fc1ccccc1-c1nn2c(c1-c1ccc3cn[nH]c3c1)CCC2 [Compound 134, 6-(2-(2-Fluorophenyl)-5,6-dihydro-4H-pyrrolo[1,2-b]pyrazol-3-yl)-1H-indazole]	6.07 µM	0.901 µM
Fc1ccccc1-c1nn2c(c1-c1ccc3nccn3c1)CCC2 [Compound 135, 6-(2-(2-Fluorophenyl)-5,6-dihydro-4H-pyrrolo[1,2-b]pyrazol-3-yl)imidazo[1,2-a]pyridine]	2.15 µM	0.924 µM
Fc1ccccc1-c1nn2c(c1-c1ccc3nccnc3c1)CCC2 [Compound 136, 6-(2-(2-Fluorophenyl)-5,6-dihydro-4H-pyrrolo[1,2-b]pyrazol-3-yl)quinoxaline]	2.36 µM	0.613 µM
Fc1ccccc1-c1nn2c(c1-c1ccc3ncnn3c1)CCC2 [Compound 137, 6-(2-(2-Fluorophenyl)-5,6-dihydro-4H-pyrrolo[1,2-b]pyrazol-3-yl)-[1,2,4]triazolo[1,5-a]pyridine]	0.66 µM	0.144 µM
Fc1c(Cl)cccc1-c1nn2c(c1-c1ccc3[nH]ncc3c1)CCC2 [Compound 138, 5-(2-(3-Chloro-2-fluorophenyl)-5,6-dihydro-4H-pyrrolo[1,2-b]pyrazol-3-yl)-1H-indazole]	1.47 µM	0.731 µM
Fc1c(Cl)cccc1-c1nn2c(c1-c1ccc3nccn3c1)CCC2 [Compound 139, 6-(2-(3-Chloro-2-fluorophenyl)-5,6-dihydro-4H-pyrrolo[1,2-b]pyrazol-3-yl)imidazo[1,2-a]pyridine]	0.874 µM	0.359 µM
Fc1c(Cl)cccc1-c1nn2c(c1-c1ccc3ncsc3c1)CCC2 [Compound 140, 6-(2-(3-Chloro-2-fluorophenyl)-5,6-dihydro-4H-pyrrolo[1,2-b]pyrazol-3-yl)benzo[d]thiazole]	0.842 µM	0.504 µM
Fc1c(Cl)cccc1-c1nn2c(c1-c1ccc3ncnn3c1)CCC2 [Compound 141, 6-(2-(3-Chloro-2-fluorophenyl)-5,6-dihydro-4H-pyrrolo[1,2-b]pyrazol-3-yl)-[1,2,4]triazolo[1,5-a]pyridine]	0.703 µM	0.208 µM
Fc1ccc(-c2nn3c(c2-c2ccc4[nH]ncc4c2)CCC3)cc1Cl [Compound 142, 5-(2-(3-Chloro-4-fluorophenyl)-5,6-dihydro-4H-pyrrolo[1,2-b]pyrazol-3-yl)-1H-indazole]	0.344 µM	0.153 µM
Fc1ccc(-c2nn3c(c2-c2ccc4cn[nH]c4c2)CCC3)cc1Cl [Compound 143, 6-(2-(3-Chloro-4-fluorophenyl)-5,6-dihydro-4H-pyrrolo[1,2-b]pyrazol-3-yl)-1H-indazole]	0.512 µM	0.221 µM
Fc1ccc(-c2nn3c(c2-c2ccc4nccn4c2)CCC3)cc1Cl [Compound 144, 6-(2-(3-Chloro-4-fluorophenyl)-5,6-dihydro-4H-pyrrolo[1,2-b]pyrazol-3-yl)imidazo[1,2-a]pyridine]	0.343 µM	0.1 µM
Fc1ccc(-c2nn3c(c2-c2ccc4ncsc4c2)CCC3)cc1Cl [Compound 145, 6-(2-(3-Chloro-4-fluorophenyl)-5,6-dihydro-4H-pyrrolo[1,2-b]pyrazol-3-yl)benzo[d]thiazole]	0.572 µM	0.194 µM
Fc1ccc(-c2nn3c(c2-c2ccc4ncccc4c2)CCC3)cc1Cl [Compound 146, 6-(2-(3-Chloro-4-fluorophenyl)-5,6-dihydro-4H-pyrrolo[1,2-b]pyrazol-3-yl)quinoline]	2.73 µM	1.04 µM
Fc1ccc(-c2nn3c(c2-c2ccc4nccnc4c2)CCC3)cc1Cl [Compound 147, 6-(2-(3-Chloro-4-fluorophenyl)-5,6-dihydro-4H-pyrrolo[1,2-b]pyrazol-3-yl)quinoxaline]	0.687 µM	0.204 µM
